Assays:
Test in all cases: relative viability (nuclei count vs DMSO), 5 days (fraction); higher = more cells survive
OSI-027 + AZD7762 = compound: COc1cccc2cc(-c3nc([C@H]4CC[C@H](C(=O)O)CC4)n4ncnc(N)c34)[nH]c12 [OSI-027] + NC(=O)Nc1cc(-c2cccc(F)c2)sc1C(=O)N[C@H]1CCCNC1 [AZD7762] (partner 0.2 µM)
Procedure, shortened: (§1)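 Values are medians from duplicate plates. Each reflects relative viability, defined as the nuclei count of treated wells over that of vehicle wells. Lung cancer cell lines in 1536-well plates were pin-tool dosed one day after seeding with one drug alone or with a fixed anchor-drug dose plus five library-drug doses (not always all listed) in √10 steps, then fixed, stained and imaged at 4× after 5 days.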

OSI-027 + Olaparib = compound: COc1cccc2cc(-c3nc([C@H]4CC[C@H](C(=O)O)CC4)n4ncnc(N)c34)[nH]c12 [OSI-027] + O=C(c1cc(Cc2n[nH]c(=O)c3ccccc23)ccc1F)N1CCN(C(=O)C2CC2)CC1 [Olaparib] (partner 8 µM)
Procedure, shortened: as §1

Alpelisib + Bortezomib = compound: Cc1nc(NC(=O)N2CCC[C@H]2C(N)=O)sc1-c1ccnc(C(C)(C)C(F)(F)F)c1 [Alpelisib] + CC(C)C[C@H](NC(=O)[C@H](Cc1ccccc1)NC(=O)c1cnccn1)B(O)O [Bortezomib] (partner 0.002 µM)
Procedure, shortened: as §1

OSI-027 + Decitabine = compound: COc1cccc2cc(-c3nc([C@H]4CC[C@H](C(=O)O)CC4)n4ncnc(N)c34)[nH]c12 [OSI-027] + Nc1ncn([C@H]2C[C@H](O)[C@@H](CO)O2)c(=O)n1 [Decitabine] (partner 2 µM)
Procedure, shortened: as §1

Cell Line	relative viability (OSI-027 + AZD7762; first compound 0.01 µM)	relative viability (OSI-027 + AZD7762; first compound 0.03162 µM)	relative viability (OSI-027 + AZD7762; first compound 0.1 µM)	relative viability (OSI-027 + AZD7762; first compound 0.3162 µM)	relative viability (OSI-027 + AZD7762; first compound 1 µM)	relative viability (OSI-027 + Olaparib; first compound 0.01 µM)	relative viability (OSI-027 + Olaparib; first compound 0.03162 µM)	relative viability (OSI-027 + Olaparib; first compound 0.1 µM)	relative viability (OSI-027 + Olaparib; first compound 0.3162 µM)	relative viability (OSI-027 + Olaparib; first compound 1 µM)	relative viability (Alpelisib + Bortezomib; first compound 0.04 µM)	relative viability (Alpelisib + Bortezomib; first compound 0.4 µM)	relative viability (Alpelisib + Bortezomib; first compound 4 µM)	relative viability (OSI-027 + Decitabine; first compound 0.01 µM)	relative viability (OSI-027 + Decitabine; first compound 0.03162 µM)	relative viability (OSI-027 + Decitabine; first compound 0.1 µM)	relative viability (OSI-027 + Decitabine; first compound 0.3162 µM)	relative viability (OSI-027 + Decitabine; first compound 1 µM)	relative viability (Alpelisib + Bortezomib; first compound 0.1265 µM)	relative viability (Alpelisib + Bortezomib; first compound 1.265 µM)
CAL-12T	0.626	0.741	0.603	0.668	0.585	0.751	0.749	0.777	0.53	0.335	1.08	0.952	0.718	–	–	–	–	–	–	–
LK-2	0.538	–	0.277	0.16	0.112	0.611	0.642	0.654	0.476	0.173	–	–	–	0.207	0.251	0.231	0.234	0.142	–	–
EKVX	0.694	0.726	0.666	0.692	0.562	0.659	0.935	0.88	0.832	0.516	1.09	1.05	1.02	0.643	0.329	0.363	0.284	0.28	1.05	0.953
EMC-BAC-2	1.05	1.14	0.833	0.791	0.63	0.487	0.489	0.468	0.402	0.29	1.02	1.22	0.741	0.97	0.992	0.934	0.827	0.588	1.01	0.929
NCI-H520	–	–	–	–	–	0.286	0.313	0.293	0.216	0.208	0.59	0.553	0.319	0.583	0.482	0.47	0.363	0.228	0.687	0.623
NCI-H322M	0.621	0.61	0.481	0.427	0.419	0.818	0.718	0.813	0.666	0.505	1.23	1.1	0.857	0.66	0.658	0.694	0.662	0.542	1.06	1.1
COR-L 105	–	–	–	–	–	0.713	0.722	0.726	0.571	0.685	0.92	1.33	0.782	0.739	0.56	0.603	0.639	0.647	0.86	0.735
NCI-H2170	0.995	0.824	0.768	0.689	0.515	0.664	0.592	0.604	0.525	0.346	–	–	–	0.459	0.491	0.463	0.421	0.31	–	–
NCI-H358	0.544	0.472	0.543	0.56	0.347	0.708	0.546	0.579	0.572	0.422	–	–	–	0.191	0.182	0.199	0.232	0.178	–	–
NCI-H1793	0.409	0.435	0.399	0.36	0.239	0.866	0.791	0.729	0.363	0.233	–	–	–	0.457	0.493	0.436	0.329	0.259	–	–

Source: the supplement of paper PMC10307832
